What was measured:
[1] = tested on: human hepatic stellate cells (HHSC); test: HHSC proliferation inhibition, WST-1 cell proliferation assay; format: cell-based; conditions: AT-II 10^-6M + LPS 10^-5M; ARB 10^-6M, obeticholic acid 5×10^-6M; 24 hours; WST-1 absorbance
Protocol: The various combined effects of obeticholic acid and three types of ARBs (losartan, valsartan, and candesartan) were confirmed in an in vitro cell system experiment. Specifically, using human hepatic stellate cells (HHSC), which are implicated in the main mechanism of progression of hepatic fibrosis in NASH, the effects of administration of obeticholic acid in combination with the three ARBs of inhibiting HHSC proliferation capacity and the expression of fibrosis markers were evaluated according to the following method. Human hepatic stellate cells (HHSC) (also referred to as human hepatic star cells) Obeticholic acid (obtained from Intercept Pharmaceuticals, Inc. via Sumitomo Dainippon Pharma Co., Ltd.) was used as an FXR agonist, and commercial losartan (potassium salt of losartan; referred to in this working example simply as “losartan”) and valsartan and candesartan ([…] of candesartan; referred to in this working example simply as “candesartan”) were used as ARBs. […] The direct action of inhibiting HIISC proliferation capacity was evaluated by means of a cell proliferation assay using WST-1 reagent. […] AT-II (10^-6M) Positive control group L […]): LPS 10^-5M) Positive control group AL ([…]): (10^-6M)+LPS (10^-5M) Obeticholic acid administration (G3): AT-II (10^-6M)+LPS (10^-5M)+obeticholic acid (5×10^-6M) ARB administration (G4): AT-II (10^-6M)+LPS (10^-5M)+ARB (10^-6M) Obeticholic acid+ARB combined administration (G5): AT-II (10^-6M)+LPS (10^-5M)+obeticholic acid (5×10^-6M)+ARB (10^-6M) 3) After the cells of the above groups (G1, G2A, G2L, G2AL, G3, G4, G5) were cultured for 24 hours, respective WST-1 cell proliferation assays were conducted, and the inhibitory effect of the pharmaceutical agents on cell proliferation was evaluated. The inhibitory effect of valsartan and candesartan on HHSC proliferation was also evaluated according to steps 1)-3) above. […]

TGF-β1 = test: HHSC fibrosis marker gene expression, RT-PCR, TGF-β1; format: cell-based, human; conditions: AT-II 10^-6M + LPS 10^-5M; ARB 10^-6M, obeticholic acid 5×10^-6M; 24 hours; monotherapy vs G2AL, combination vs monotherapy groups
Protocol: (§1) The various combined effects of obeticholic acid and three types of ARBs (losartan, valsartan, and candesartan) were confirmed in an in vitro cell system experiment. Specifically, using human hepatic stellate cells (HHSC), which are implicated in the main mechanism of progression of hepatic fibrosis in NASH, the effects of administration of obeticholic acid in combination with the three ARBs of inhibiting HHSC proliferation capacity and the expression of fibrosis markers were evaluated according to the following method. Human hepatic stellate cells (HHSC) (also referred to as human hepatic star cells) Obeticholic acid (obtained from Intercept Pharmaceuticals, Inc. via Sumitomo Dainippon Pharma Co., Ltd.) was used as an FXR agonist, and commercial losartan (potassium salt of losartan; referred to in this working example simply as “losartan”) and valsartan and candesartan ([…] of candesartan; referred to in this working example simply as “candesartan”) were used as ARBs. Angiotensin II (AT-II) and/or lipopolysaccharide (LPS) were used (both AT1-mediated AT-II signalling and TLR4-mediated LPS signaling are known to play major roles in HSC activation and the progression of hepatic fibrosis). With respect to the effect of inhibiting fibrosis marker gene expression, collagen production capacity and TGF-β production capacity were evaluated by the RT-PCR method. 1) HHSCs were inoculated onto a 6-well plate in the amount of 300,000 cells/2 ml and allowed to proliferate in 1% FBS DMEM medium for 24 hours. 2) After 24 hours, the cells were divided into the following 7 groups and transferred to culture medium after adding the following drugs and/or reagents. Losartan was used as an ARB. Negative control group (G1): No drugs added (control) […] AT-II (10^-6M) Positive control group L […]): LPS (10^-5M) Positive control group AL ([…]): (10^-6M)+LPS (10^-5M) Obeticholic acid administration (G3): AT-II (10^-6M)+LPS (10^-5M)+obeticholic acid (5×10^-6M) ARB administration (G4): AT-II (10^-6M)+LPS (10^-5M)+ARB (10^-6M) Obeticholic acid+ARB combined administration (G5): AT-II (10^-6M)+LPS (10^-5M)+obeticholic acid (5×10^-6M)+ARB (10^-6M) […] Evaluations were conducted in the five groups G1, G2AL, G3, G4, and G5.

α1(I) procollagen = test: HHSC fibrosis marker gene expression, RT-PCR, α1(I) procollagen; format: cell-based, human; conditions: AT-II 10^-6M + LPS 10^-5M; ARB 10^-6M, obeticholic acid 5×10^-6M; 24 hours; monotherapy vs G2AL, combination vs monotherapy groups
Protocol: as §1

CCOc1nc2cccc(C(=O)O)c2n1Cc1ccc(-c2ccccc2-c2nn[nH]n2)cc1 [candesartan]
statistically significant inhibition: promotion of activated HHSC proliferation by AT-II and LPS, compared to positive control group AL (G2AL) [1] | TGF-β1 mRNA expression induced by AT-II and LPS in HHSC (TGF-β1) | α1(I)-procollagen mRNA expression induced by AT-II and LPS in HHSC (α1(I) procollagen)

CCCCC(=O)N(Cc1ccc(-c2ccccc2-c2nnn[nH]2)cc1)[C@H](C(=O)O)C(C)C [valsartan]
statistically significant inhibition: promotion of activated HHSC proliferation by AT-II and LPS, compared to positive control group AL (G2AL) [1] | TGF-β1 mRNA expression induced by AT-II and LPS in HHSC (TGF-β1) | α1(I)-procollagen mRNA expression induced by AT-II and LPS in HHSC (α1(I) procollagen)

From patent US11419878B2, “Medicine obtained by combining FXR agonist and ARB” (Intercept Pharmaceuticals, Inc., priority 2016, dated 2022)
